Data on 34 molecules can be found in the Biogen ADME set (Fang et al. 2023).

Values after ≈ are worked out from the molar mass of the structure shown.

For the series the following is noted: for aqueous solubility: pH 6.8.

The term aqueous solubility denotes the dissolved amount per volume that the medium holds. Low readings indicate a poorly soluble substance, high ones a readily soluble substance.

Take `c1ccc(C(c2ccccc2)c2noc(Cn3cnc(C4CC4)n3)n2)cc1`: the MDR1-MDCK efflux ratio came to 1.14; the intrinsic clearance, human liver microsomes came to 38 mL/min/kg; the intrinsic clearance, rat liver microsomes came out at 1510 mL/min/kg; the aqueous solubility stood at 26.3 µg/mL (≈ 73.6 µM).
Turning to `CCC(=O)Nc1cccc(Oc2nc(Nc3ccc(N4CCN(C)CC4)cc3OC)ncc2Cl)c1`, the MDR1-MDCK efflux ratio was found to be 14; the intrinsic clearance, human liver microsomes was found to be 15.9 mL/min/kg; the intrinsic clearance, rat liver microsomes was found to be 238 mL/min/kg.
For the molecule `CNC(=O)c1cn(C)nc1CC1CCN(Cc2cnc(-c3ccc(OC)cc3)nc2)CC1`, the MDR1-MDCK efflux ratio came out at 20.6; the intrinsic clearance, human liver microsomes was ≤ 4.74 mL/min/kg; the intrinsic clearance, rat liver microsomes amounted to 23.9 mL/min/kg; the aqueous solubility was found to be 57.5 µg/mL (≈ 132 µM).
Take `CC(C)Cc1sc(N)nc1-c1ccc(P(=O)(O)O)o1`: the MDR1-MDCK efflux ratio turned out to be 0.425; the intrinsic clearance, human liver microsomes is ≤ 4.74 mL/min/kg; the intrinsic clearance, rat liver microsomes was ≤ 10.7 mL/min/kg; the aqueous solubility turned out to be 69.3 µg/mL (≈ 229 µM).
For the molecule `Fc1cc(Br)ccc1CNCc1ccccn1`, the MDR1-MDCK efflux ratio was found to be 12; the intrinsic clearance, human liver microsomes was determined as 26.5 mL/min/kg; the intrinsic clearance, rat liver microsomes came to 445 mL/min/kg.
As for `O=C(C1CCCN(Cc2cc3c(cc2O)OCO3)C1)N1CCOCC1` (stereo not given), the MDR1-MDCK efflux ratio came to 1.94; the intrinsic clearance, human liver microsomes came to 5.4 mL/min/kg; the intrinsic clearance, rat liver microsomes turned out to be 52.6 mL/min/kg; the aqueous solubility came to 55.8 µg/mL (≈ 160 µM).
As to `C[C@@H]1c2nnn(-c3ncc(F)cn3)c2CCN1C(=O)c1cccc(C(F)(F)F)c1Cl`, the MDR1-MDCK efflux ratio amounted to 3.42; the fraction unbound, human plasma was determined as 0.0931; the fraction unbound, rat plasma is 0.174; the intrinsic clearance, human liver microsomes was ≤ 4.74 mL/min/kg. For the same molecule, the intrinsic clearance, rat liver microsomes is ≤ 10.7 mL/min/kg and the aqueous solubility amounted to 35.4 µg/mL (≈ 80.2 µM).
As for `CN(CC(=O)Nc1cccc(F)c1)C(=O)c1cccc(C#N)c1`, the MDR1-MDCK efflux ratio was determined as 6.11; the intrinsic clearance, human liver microsomes was 26.4 mL/min/kg; the intrinsic clearance, rat liver microsomes was determined as 131 mL/min/kg; the aqueous solubility amounted to 56.2 µg/mL (≈ 181 µM).
As to `Cc1nnc2ccc(N3CCC4(CCCCC4)C3)nn12`, the MDR1-MDCK efflux ratio was 0.709; the intrinsic clearance, human liver microsomes was 33.2 mL/min/kg; the intrinsic clearance, rat liver microsomes turned out to be 600 mL/min/kg.
With `CCN(c1ccc(C(C)C)cc1)S(=O)(=O)c1ccccc1`, the MDR1-MDCK efflux ratio was 0.516 and the aqueous solubility amounted to 0.65 µg/mL (≈ 2.14 µM).
In the case of `c1ccc(-c2noc(NC3CC3)n2)cc1`, the MDR1-MDCK efflux ratio amounted to 0.809; the intrinsic clearance, human liver microsomes was found to be 83.2 mL/min/kg; the intrinsic clearance, rat liver microsomes is 178 mL/min/kg; the aqueous solubility amounted to 28.3 µg/mL (≈ 141 µM).
Take `COc1ccc(CN2CCC(c3cc[nH]n3)CC2)cn1`: the intrinsic clearance, human liver microsomes was ≤ 4.74 mL/min/kg and the intrinsic clearance, rat liver microsomes was 103 mL/min/kg.
`Cc1cccc(COc2cccc(/C=C3\C(=O)NN(c4ccccc4)C3=O)c2)c1`: the intrinsic clearance, human liver microsomes came out at 66.3 mL/min/kg; the intrinsic clearance, rat liver microsomes is 294 mL/min/kg; the aqueous solubility was found to be 5.16 µg/mL (≈ 13.4 µM).
Taken in the same sequence, the figures for `CCc1nc2ccc(C(=O)NCc3ccccc3)cc2nc1CC` were 101 mL/min/kg, 943 mL/min/kg and 2.15 µg/mL (≈ 6.73 µM).
For `Cc1nc(C)c(CNc2ncnn2C)s1`, the MDR1-MDCK efflux ratio stood at 4; the intrinsic clearance, human liver microsomes is ≤ 4.74 mL/min/kg; the intrinsic clearance, rat liver microsomes stood at 22.5 mL/min/kg.
`Cc1ncc(CN(C)c2nnc(C)c(C)c2C#N)s1` returned an aqueous solubility of 28.6 µg/mL (≈ 105 µM).
Regarding `CCc1nnc(Nc2cc(C)nc(C3CN(C(=O)C(C)C)CCO3)c2)s1` (stereo not given), the MDR1-MDCK efflux ratio is 40.4; the intrinsic clearance, human liver microsomes worked out at 13.7 mL/min/kg; the intrinsic clearance, rat liver microsomes was found to be 131 mL/min/kg.
As to `O=C(Nc1nc2ccccc2[nH]1)c1ccc(-n2cccc2)cc1`, the MDR1-MDCK efflux ratio amounted to 0.359.
Turning to `CCCN(CCC1=CCCCC1)C(=O)c1cc(C(F)F)n[nH]1`, the MDR1-MDCK efflux ratio is 0.395; the intrinsic clearance, human liver microsomes amounted to 65.9 mL/min/kg; the intrinsic clearance, rat liver microsomes was determined as 1990 mL/min/kg.
As for `O=C(NCc1ccc(CN2CCS(=O)(=O)CC2)cc1)c1ccon1`, the intrinsic clearance, human liver microsomes was ≤ 4.74 mL/min/kg and the intrinsic clearance, rat liver microsomes is ≤ 10.7 mL/min/kg.
With `Cc1cccnc1NC(=O)CCn1cnc2ccccc21`, the MDR1-MDCK efflux ratio turned out to be 15.9; the intrinsic clearance, human liver microsomes was ≤ 4.74 mL/min/kg; the intrinsic clearance, rat liver microsomes was ≤ 10.7 mL/min/kg; the aqueous solubility came out at 48.1 µg/mL (≈ 172 µM).
For the molecule `Cc1ccc(C(=O)N2CCN(C(=O)NCC(=O)N3CCCC3)CC2)cc1F`, the MDR1-MDCK efflux ratio came out at 60.6; the intrinsic clearance, human liver microsomes is ≤ 4.74 mL/min/kg; the intrinsic clearance, rat liver microsomes is 22.3 mL/min/kg; the aqueous solubility came out at 75.6 µg/mL (≈ 201 µM).
On to `c1nc(Nc2ccc3c(c2)OCCCO3)c2sccc2n1`, for which the intrinsic clearance, human liver microsomes came out at 92.1 mL/min/kg; the intrinsic clearance, rat liver microsomes came to 1570 mL/min/kg; the aqueous solubility stood at 51 µg/mL (≈ 170 µM).
Regarding `COCc1noc(-c2ccc(-c3cc(C)cc(C)c3)nc2)n1`, the MDR1-MDCK efflux ratio stood at 0.295 and the aqueous solubility was 0.21 µg/mL (≈ 0.711 µM).
As to `CN(C)c1ccnc(C(=O)Nc2ccnn2-c2ccc(C#N)cc2)c1`, the intrinsic clearance, human liver microsomes was determined as 75.2 mL/min/kg and the intrinsic clearance, rat liver microsomes is 446 mL/min/kg.
As for `COCCNC(=O)c1nnc2n(c1=O)CCN2c1ccccc1`, the MDR1-MDCK efflux ratio amounted to 9.52; the intrinsic clearance, human liver microsomes is ≤ 4.74 mL/min/kg; the intrinsic clearance, rat liver microsomes was ≤ 10.7 mL/min/kg.
Taken in the same sequence, the figures for `CCOc1ccc(CNC(=O)Cn2ccc3cc(S(=O)(=O)N4CCCC4)ccc32)cc1` were 11.9, 423 mL/min/kg and 2100 mL/min/kg.
Turning to `CNC(=O)C1(Cc2ccc(-c3cccnc3)cc2)CCN(Cc2ccc(F)cc2)C1` (stereo not given), the MDR1-MDCK efflux ratio turned out to be 1.53; the fraction unbound, human plasma is 0.105; the fraction unbound, rat plasma came out at 0.083; the intrinsic clearance, human liver microsomes is 228 mL/min/kg. The molecule further displayed an intrinsic clearance, rat liver microsomes of 756 mL/min/kg.
On to `Cc1ccccc1C(=O)Nc1nc(C)c(C)s1`, for which the MDR1-MDCK efflux ratio is 0.557; the intrinsic clearance, human liver microsomes was determined as 90 mL/min/kg; the intrinsic clearance, rat liver microsomes came to 280 mL/min/kg; the aqueous solubility worked out at 30.4 µg/mL (≈ 123 µM).
Take `CN1CCC(=C2c3ccccc3CCc3sccc32)CC1`: the MDR1-MDCK efflux ratio turned out to be 0.862; the intrinsic clearance, human liver microsomes is 15.1 mL/min/kg; the intrinsic clearance, rat liver microsomes worked out at 2130 mL/min/kg.
Take `O=C1c2cccc3cccc(c23)C(=O)N1CCN1CCOCC1`: the MDR1-MDCK efflux ratio is 0.595; the intrinsic clearance, human liver microsomes turned out to be 12.1 mL/min/kg; the intrinsic clearance, rat liver microsomes was 424 mL/min/kg; the aqueous solubility came out at 36.9 µg/mL (≈ 119 µM).
Turning to `CN(Cc1cnccn1)C(=O)c1cc(-c2ccc(F)cc2)on1`, the aqueous solubility came out at 16 µg/mL (≈ 51.2 µM).
On to `Cn1cc(C(=O)O)c(C2CCCCC2)n1`, for which the MDR1-MDCK efflux ratio was 1.04; the intrinsic clearance, human liver microsomes is ≤ 4.74 mL/min/kg; the intrinsic clearance, rat liver microsomes is ≤ 10.7 mL/min/kg; the aqueous solubility came out at 33.6 µg/mL (≈ 161 µM).
`O=C1CCCc2nc(Nc3nc(-c4ccccc4)c4ccccc4n3)ncc21` yielded an aqueous solubility of 0.16 µg/mL (≈ 0.435 µM).
